For data set [1] the following is noted: mouse, p.o.
The subject of data set [2] is Staphylococcus aureus 209P JC-1. In words: Antibacterial activity (in medicinal field), MIC. It is filed as cell-based. The settings on record: read-out: Minimal Inhibitory Conc. (MIC).
Data set [3] has as its system Staphylococcus epidermidis ATCC 14990. In words: Antibacterial activity (in medicinal field), MIC. It counts as cell-based. To be noted: ATCC14990, read-out: Minimal Inhibitory Conc. (MIC).
For data set [4], the system named is Staphylococcus faecalis ATCC 8043. Briefly: Antibacterial activity (in medicinal field), MIC. It counts as cell-based. To be noted: ATCC8043, read-out: Minimal Inhibitory Conc. (MIC).
Data set [5] deals with Bacillus anthracis No. 109. In words: microbe, parasite or virus in culture. To be noted: NO.109, read-out: Minimal Inhibitory Conc. (MIC). It is filed as cell-based.
The test system of data set [6] is Escherichia coli NIHJ JC-2. In words: Antibacterial activity (in medicinal field), MIC. It is filed as cell-based. To be noted: NIHJJC2, read-out: Minimal Inhibitory Conc. (MIC).
The subject of data set [7] is Citrobacter freundii GN-346. In words: Antibacterial activity (in medicinal field), MIC. It counts as cell-based. To be noted: GN346, read-out: Minimal Inhibitory Conc. (MIC).
The test system of another data set is Salmonella typhi O-901-W. Briefly: Antibacterial activity (in medicinal field), MIC. It is filed as cell-based. To be noted: Salmonella enterica, read-out: Minimal Inhibitory Conc. (MIC).
The test system of data set [8] is Shigella sonnei EW 33 Type I. In words: Antibacterial activity (in medicinal field), MIC. It is filed as cell-based. To be noted: EW33TYPEI, read-out: Minimal Inhibitory Conc. (MIC).
Data set [9] deals with Klebsiella pneumoniae PCI-602. Briefly: Antibacterial activity (in medicinal field), MIC. To be noted: PCI602, read-out: Minimal Inhibitory Conc. (MIC). It counts as cell-based.
A further data set deals with Proteus vulgaris OX-19. Briefly: Antibacterial activity (in medicinal field), MIC. It is filed as cell-based. To be noted: OX19, read-out: Minimal Inhibitory Conc. (MIC).
The subject of data set [10] is Serratia marcescens MB-3848. In words: Antibacterial activity (in medicinal field), MIC. It is filed as cell-based. The settings on record: MB3848, read-out: Minimal Inhibitory Conc. (MIC).
Data set [11] deals with Pseudomonas cepacia M-0527. Briefly: Antibacterial activity (in medicinal field), MIC. It is filed as cell-based. To be noted: Burkholderia cepacia, M0527, read-out: Minimal Inhibitory Conc. (MIC).
Data set [12] relates to Trichophyton mentagrophytes. In words: Therapeutic experiment: treatment of trichophytosis in guinea pigs. It counts as in vivo. To be noted: 1 % preparation, 0.25 ml once per day over 8 consecutive days, visual observation of diseased skin.

Values after ≈ are worked out from the molar mass of the structure shown. Read-outs that look alike come from different tables or passages of the source.

For the compound `O=[N+]([O-])c1ccn(CC#CI)c1` [1-(1'-iodopro-pyn-3'-yl)-3-nitropyrrole, 1-(1'-iodopropyn-3'-yl)-3-nitropyrrole], the “Acute Toxicity (survival)” value in [1] (Dosage 200 mg/kg), in [1] (Dosage 500 mg/kg) and in data set [1] (Dosage 800 mg/kg) was “All animals survived” each time.

Consider `O=[N+]([O-])c1cn(CC#CI)c(Cl)c1Cl` [1-(1'-iodopropyn-3'-yl)-2,3-dichloro-4-nitropyrrole], for which the “Acute Toxicity (survival)” value in data set [1] (Dosage 200 mg/kg), in data set [1] (Dosage 500 mg/kg) and in [1] (Dosage 800 mg/kg) was “All animals survived” throughout.

On to `O=[N+]([O-])c1cn(CC(I)=C(I)I)c(Cl)c1Cl` [1-(2',3',3'-triiodoallyl)-2,3-dichloro-4-nitropyrrole], for which the MIC in data set [2] turned out to be 31.2 µg/mL (≈ 52.1 µM); in [3] it was 31.2 µg/mL (≈ 52.1 µM); in data set [4] it was 31.2 µg/mL (≈ 52.1 µM); in [5], 31.2 µg/mL (≈ 52.1 µM); in data set [6] it was 12.5 µg/mL (≈ 20.9 µM); in data set [7], 12.5 µg/mL (≈ 20.9 µM). For the same compound, the MIC in the data set on Salmonella typhi O-901-W was determined as 12.5 µg/mL (≈ 20.9 µM); in data set [8], 6.25 µg/mL (≈ 10.4 µM); in data set [9], 25 µg/mL (≈ 41.8 µM); in the data set with Proteus vulgaris OX-19, 6.25 µg/mL (≈ 10.4 µM); in [10] it was 6.25 µg/mL (≈ 10.4 µM); in [11], 6.25 µg/mL (≈ 10.4 µM). Further, the “Therapeutic Effect: Desquamation” value in data set [12] was “effective”. Also, in data set [12], the “Therapeutic Effect: Redness” value is recorded as “prominently effective”. Moreover, in data set [12], the “Therapeutic Effect: Thickening” value was “effective”. For the same compound, the “Acute Toxicity (survival)” value in data set [1] (Dosage 100 mg/kg), in data set [1] (Dosage 200 mg/kg) and in data set [1] (Dosage 800 mg/kg) was “All animals survived” throughout.

Turning to `O=[N+]([O-])c1cc(Cl)n(CC(I)=C(I)I)c1` [1-(2',3',3'-triiodoallyl)-2-chloro-4-nitropyrrole], the MIC in data set [2] stood at 6.25 µg/mL (≈ 11.1 µM); in data set [3] it was 6.25 µg/mL (≈ 11.1 µM); in [4], 6.25 µg/mL (≈ 11.1 µM); in [5], 6.25 µg/mL (≈ 11.1 µM); in [6] it was 12.5 µg/mL (≈ 22.2 µM); in data set [7], 12.5 µg/mL (≈ 22.2 µM). Also, the MIC in the data set with Salmonella typhi O-901-W worked out at 12.5 µg/mL (≈ 22.2 µM); in [8] it was 12.5 µg/mL (≈ 22.2 µM); in data set [9], 25 µg/mL (≈ 44.3 µM); in the data set with Proteus vulgaris OX-19 it was 12.5 µg/mL (≈ 22.2 µM); in [10] it was 12.5 µg/mL (≈ 22.2 µM); in [11] it was 12.5 µg/mL (≈ 22.2 µM).

As to `O=[N+]([O-])c1nccn1CC(I)=C(I)I` [1-(2',3',3'-triiodoallyl)-2-nitroimidazole], the MIC in data set [2] was 12.5 µg/mL (≈ 23.5 µM); in data set [3], 12.5 µg/mL (≈ 23.5 µM); in data set [4], 25 µg/mL (≈ 47.1 µM); in [5], 6.25 µg/mL (≈ 11.8 µM); in data set [6] it was 25 µg/mL (≈ 47.1 µM); in data set [7], 3.12 µg/mL (≈ 5.88 µM). Also, the MIC in the data set on Salmonella typhi O-901-W worked out at 12.5 µg/mL (≈ 23.5 µM); in [8], 3.12 µg/mL (≈ 5.88 µM); in [9], 6.25 µg/mL (≈ 11.8 µM); in the data set on Proteus vulgaris OX-19 it was 6.25 µg/mL (≈ 11.8 µM); in data set [10] it was 25 µg/mL (≈ 47.1 µM); in data set [11], 3.12 µg/mL (≈ 5.88 µM).

Take `O=[N+]([O-])c1ccn(CC(I)=C(I)I)c1` [1-(2',3',3'-triiodoallyl)-3-nitropyrrole]: in data set [12], the “Therapeutic Effect: Desquamation” value is listed as “effective”, the “Therapeutic Effect: Redness” value is recorded as “prominently effective” and the “Therapeutic Effect: Thickening” value was “effective”. In addition, in [1] (Dosage 100 mg/kg), the “Acute Toxicity (survival)” value is reported as “All animals survived”. For the same compound, the “Acute Toxicity (survival)” value in data set [1] (Dosage 200 mg/kg) is “All animals survived”. The “Acute Toxicity (survival)” value in data set [1] (Dosage 800 mg/kg) is reported as “All animals survived”.

Consider `IC(I)=C(I)Cn1ccnc1` [1-(2',3',3'-triiodoallyl)-imidazole, 1-(2',3',3'-Triiodoallyl)imidazole], for which the MIC in data set [2] was found to be 12.5 µg/mL (≈ 25.7 µM); in data set [3] it was 12.5 µg/mL (≈ 25.7 µM); in data set [4], 25 µg/mL (≈ 51.5 µM); in data set [5], 12.5 µg/mL (≈ 25.7 µM); in data set [6] it was 12.5 µg/mL (≈ 25.7 µM); in data set [7], 12.5 µg/mL (≈ 25.7 µM). The MIC in the data set with Salmonella typhi O-901-W was 12.5 µg/mL (≈ 25.7 µM); in data set [8], 6.5 µg/mL (≈ 13.4 µM); in [9], 12.5 µg/mL (≈ 25.7 µM); in the data set with Proteus vulgaris OX-19, 12.5 µg/mL (≈ 25.7 µM); in [10], 12.5 µg/mL (≈ 25.7 µM); in data set [11], 6.25 µg/mL (≈ 12.9 µM).

For the compound `Clc1ccccc1C(c1ccccc1)(c1ccccc1)n1ccnc1` [chlotri-mazol, 1-(O-chloro-d, a-diphenylbenzyl) imidazole, reference compound], in data set [12], the “Therapeutic Effect: Desquamation” value is “effective”, the “Therapeutic Effect: Redness” value is on record as “in-effective” and the “Therapeutic Effect: Thickening” value was “effective”.

Take `O=[N+]([O-])c1c(Cl)cccc1-c1c[nH]cc1Cl` [pyrrolni-trin, 3-chloro-4-(2'-nitro-3'-chlorophenyl)pyrrole, reference compound]: in data set [12], the “Therapeutic Effect: Desquamation” value is on record as “in-effective”, the “Therapeutic Effect: Redness” value is “in-effective” and the “Therapeutic Effect: Thickening” value is given as “effective”.

The record behind these values is EP0080051A2, “Heterocyclic compounds and antibacterial and antifungal compositions containing the same as active ingredients” (MEIJI SEIKA KAISHA LTD., priority 1981, dated 1983).
